These results are taken from paper PMC12660299, “Isoliquiritigenin Attenuates Staphylococcus aureus Adhesion and Invasion to Counteract Staphylococcus aureus Pathogenicity and Infection” (Frontiers in Cellular and Infection Microbiology, 2025).

This test addresses T1, sortase A (SrtA) (Staphylococcus aureus, UniProt Q2FV99).
T1 construct: recombinant SrtAΔN59
Nature of the test: FRET peptide-cleavage assay with purified recombinant SrtA; supported by fluorescence quenching (Ka = […] L/mol) and reversibility by dilution. It is filed as biochemical.

T1 sequence (Q2FV99 60-206): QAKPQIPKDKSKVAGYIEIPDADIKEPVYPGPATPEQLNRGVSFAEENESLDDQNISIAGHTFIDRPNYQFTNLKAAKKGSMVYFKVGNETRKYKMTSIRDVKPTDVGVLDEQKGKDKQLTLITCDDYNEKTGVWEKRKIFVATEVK

As a reminder, the IC50 is the point on the concentration scale where inhibition reaches its midpoint. For the compound `O=C(/C=C/c1ccc(O)cc1)c1ccc(O)cc1O` [ISL, isoliquiritigenin], the half-maximal inhibitory concentration (IC50) was 52.1 µM.
